Tested on: IGFBP3 protein
Assay: Quantification of IGFBP3 protein by ELISA in supernatant of normal human keratinocytes
Assay type: cell-based
Conditions: IGF-1 at 100 ng/ml, 24 h, related to non-treated cells (100), NS
Experimental: Normal human keratinocytes were cultured up to 70% confluence, then treated for 24 h with IGF-1 at 100 ng/ml or the Bixa orellana extract obtained according to Example 1a) before mixing with maltodextrin and spray-drying at 0.1% or 0.05% (w/w in the total medium) for 24 h. The cells are lysed for assaying the DNA, and the supernatant is used for the quantification of the IGFBP3 protein by ELISA according to the protocol of the supplier of the ELISA kit (LSBio Human IGFBP3 ELISA Kit ref LS-F24538 lot 103180).
The results are related to non-treated cells. A statistical t-test test is carried out, and the means are compared.

IGF-1: growth factor insulin-like growth factor type 1 (IGF1), used at 100 ng/ml
IGFBP3 protein, Mean: 128.195

Source: patent US20210259949A1, “USE OF A BIXA ORELLANA EXTRACT” (BASF Beauty Care Solutions France SAS, priority 2018, published 2021)
